From patent EP4692114A1, “CALCITONIN ANALOGUE, AND DERIVATIVE THEREOF AND USE THEREOF” (Hangzhou Sciwind Biosciences Co., Ltd., priority 2023, dated 2024) come the findings set out here.

A short description of data set [1]: Heat accelerated stability assay under a neutral condition. The data set is classed as physicochemical. To be noted: pH about 7.4, 40°C; for Concentration change (7d-0d)/%: Day 7 vs Day 0, reversed phase chromatography; for Purity Change% (7d-0d): Day 7 vs Day 0. In a few lines: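 Peptide (1 mg/mL) with sodium dihydrogen phosphate (1.42 mg/mL) in water, pH ~7.4, was sterile-filtered and stored at 40 °C, sampled on days 7 and 26. After centrifugation, concentration and purity (target/total peak area) were measured by reversed-phase HPLC at 214 and 280 nm, water/0.05% TFA to acetonitrile gradient, 25 °C column.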

Another data set addresses T1, human amylin receptors (Homo sapiens, UniProt O60896+P30988).
T1 sequence (P30988 25-474): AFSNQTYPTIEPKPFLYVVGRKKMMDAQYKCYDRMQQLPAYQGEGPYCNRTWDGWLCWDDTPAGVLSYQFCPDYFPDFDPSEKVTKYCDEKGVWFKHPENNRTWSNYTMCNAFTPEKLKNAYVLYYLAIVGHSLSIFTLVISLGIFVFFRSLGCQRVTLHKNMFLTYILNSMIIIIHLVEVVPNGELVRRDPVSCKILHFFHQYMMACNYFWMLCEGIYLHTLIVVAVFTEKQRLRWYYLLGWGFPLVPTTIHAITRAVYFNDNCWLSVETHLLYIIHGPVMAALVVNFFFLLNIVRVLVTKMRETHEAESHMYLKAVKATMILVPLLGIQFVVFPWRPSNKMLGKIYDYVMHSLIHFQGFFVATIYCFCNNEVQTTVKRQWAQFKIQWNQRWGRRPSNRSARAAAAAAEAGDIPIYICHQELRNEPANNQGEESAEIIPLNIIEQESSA
T1 sequence (O60896 24-148 partner): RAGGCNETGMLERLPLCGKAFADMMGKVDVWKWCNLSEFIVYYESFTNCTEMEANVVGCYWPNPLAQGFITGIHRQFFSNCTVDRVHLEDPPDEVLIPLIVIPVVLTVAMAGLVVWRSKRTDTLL
In words: Luciferase assay of amylin (amylin receptor/CRE-luc cell line).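 Also: agonist potency from luminescence of cAMP response element-driven luciferase, EC50 derived from a standard curve of signal versus compound concentration.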 In kind it is cell-based. The conditions noted are these: stably transfected amylin receptor/CRE-luc CHO cells (CHO-K1/Gal5/AMY3), 24 hours incubation, luciferase readout.

Data set [2] can be described thus: Study of weight change and food consumption in rats. In kind it is in vivo, SD (Sprague Dawley) rats. The conditions noted are these: SD rats, subcutaneous, 10 nmol/kg; for Effect on reducing food intake: accumulated food intake recorded every 24 hours (FIGs. 7 and 9); for Effect on reducing body weight: recorded every 24 hours (FIGs. 6 and 8). An excerpt:
SD (Sprague Dawley) rats weighing 200-250 g were used for this study. The rats were received at least 10-14 days before the study began such that they could accommodate to the experimental environment. After arrival, they were exposed to a reversed light/dark cycle (i.e., lights switched off in daytime and on in nighttime) for two weeks and were individually housed for the first week so as to ensure high data accuracy and test sensitivity. Throughout the acclimation and experiment period, the rats had free access to food and water. 5-8 rats were assigned to each testing group for the derivatives and were subcutaneously administered the derivatives at a dose of 10 nmol/kg or a vehicle, and the dosing timepoint was recorded for each group. After dosing, the rats were put back into cages where they were housed and could have access to food and water. Food consumption and weight change of the rats were recorded online or manually every 24 hours.

Setting [3] is: purity from reversed phase chromatography-214 nm.

*1 amine or outer side, *2 acyl side, *3 side chain or, on linkers, in order; H or OH if unused. Where a SMILES comes first, the peptide text is derived from it. The star is where a group is joined. C20 diacid = O=C(O)CCCCCCCCCCCCCCCCCCC(=O)*; C18 diacid = O=C(O)CCCCCCCCCCCCCCCCC(=O)*; γGlu = O=C(O)[C@H](CCC(=O)[*:2])N[*:1]

Turning to `CC(C)C[C@H](NC(=O)[C@H](CCCNC(=N)N)NC(=O)CNC(=O)[C@H](CC(C)C)NC(=O)[C@@H](NC(=O)[C@H](C)NC(=O)[C@@H](NC(=O)[C@H](CO)NC(=O)[C@H](CC(C)C)NC(=O)[C@H](CCC(N)=O)NC(=O)[C@H](CO)NC(=O)[C@H](C)NC(=O)CC[C@H](NC(=O)CCCCCCCCCCCCCCCCCCC(=O)O)C(=O)O)[C@@H](C)O)C(C)C)C(=O)N[C@@H](CO)C(=O)N[C@@H](CCC(N)=O)C(=O)N[C@@H](CCC(=O)O)C(=O)N[C@@H](CC(C)C)C(=O)N[C@@H](Cc1c[nH]cn1)C(=O)N[C@@H](CCCNC(=N)N)C(=O)N[C@@H](CC(C)C)C(=O)N[C@@H](CCC(N)=O)C(=O)N[C@@H](CC(=O)O)C(=O)N[C@@H](Cc1ccc(O)cc1)C(=O)N1CCC[C@H]1C(=O)N[C@@H](CCCNC(=N)N)C(=O)N[C@H](C(=O)N[C@@H](CC(=O)O)C(=O)N[C@H](C(=O)NCC(=O)N[C@@H](C)C(=O)NCC(=O)N[C@@H](CO)C(=O)N1CCC[C@H]1C(N)=O)C(C)C)[C@@H](C)O` [M19] ({C20 diacid-γGlu}-ASQLSTAVLGRLSQELHRLQDYPRTDVGAGSP-NH2), in data set [1] (1 mg/mL, phosphate), the “Changes in characteristics or properties, 0d” value (“Changes … 0d” for short) is listed as “Clear” and the “Changes in characteristics or properties, 7d” value (“Changes … 7d” for short) is on record as “Clear”. Moreover, the “Concentration change (7d-0d)/%” value in data set [1] is reported as “No change (a decrease of less than 1% from the initial value to the detected content is denoted as "no change")”. Further, in data set [1] (setting [3]), the “Purity Change% (7d-0d)” value is given as “No change (a decrease of less than 1% from the initial value to the detected content is denoted as "no change")”. Also, it took 0.016 nM to reach a half-maximal effect at human amylin receptors (EC50). Also, in data set [2], the “Effect on reducing food intake” value was “prominent effect” and the “Effect on reducing body weight” value was “prominent effect”.

As to `CC(C)C[C@H](NC(=O)[C@H](CCCNC(=N)N)NC(=O)CNC(=O)[C@H](CC(C)C)NC(=O)[C@@H](NC(=O)[C@H](C)NC(=O)[C@@H](NC(=O)[C@H](CO)NC(=O)[C@H](CC(C)C)NC(=O)[C@H](CCC(N)=O)NC(=O)[C@H](CO)NC(=O)[C@H](C)NC(=O)CC[C@H](NC(=O)CCCCCCCCCCCCCCCCCCC(=O)O)C(=O)O)[C@@H](C)O)C(C)C)C(=O)N[C@@H](CO)C(=O)N[C@@H](CCC(N)=O)C(=O)N[C@@H](CCC(=O)O)C(=O)N[C@@H](CC(C)C)C(=O)N[C@@H](Cc1c[nH]cn1)C(=O)N[C@@H](CCCNC(=N)N)C(=O)N[C@@H](CC(C)C)C(=O)N[C@@H](CCC(=O)O)C(=O)N[C@@H](CC(=O)O)C(=O)N[C@@H](Cc1ccc(O)cc1)C(=O)N1CCC[C@H]1C(=O)N[C@@H](CCCNC(=N)N)C(=O)N[C@H](C(=O)N[C@@H](CC(=O)O)C(=O)N[C@H](C(=O)NCC(=O)N[C@@H](CO)C(=O)NCC(=O)N[C@@H](CO)C(=O)N1CCC[C@H]1C(N)=O)C(C)C)[C@@H](C)O` [M13] ({C20 diacid-γGlu}-ASQLSTAVLGRLSQELHRLEDYPRTDVGSGSP-NH2), in data set [1] (1 mg/mL, phosphate), the “Changes … 0d” value was “Clear” and the “Changes … 7d” value is “Clear”. For the same compound, in data set [1] (1 mg/mL, phosphate, Day 26), the “Characteristics or properties on Day 26” value is recorded as “clear solution”. Moreover, the “Concentration change on Day 26 as compared to Day 0” value in data set [1] (Day 26 vs Day 0) is “less than 2%”. Further, in data set [1] (setting [3]), the “Purity Change% (7d-0d)” value is recorded as “No change (a decrease of less than 1% from the initial value to the detected content is denoted as "no change")”. For the same compound, on human amylin receptors, the response was half-maximal at 0.017 nM (EC50). Besides, in data set [2], the “Effect on reducing food intake” value is given as “particularly effective” and the “Effect on reducing body weight” value is recorded as “particularly effective”.

In the case of `CC(C)C[C@H](NC(=O)[C@H](CCCNC(=N)N)NC(=O)CNC(=O)[C@H](CC(C)C)NC(=O)[C@@H](NC(=O)[C@H](C)NC(=O)[C@@H](NC(=O)[C@H](CO)NC(=O)[C@H](CC(C)C)NC(=O)[C@H](CCC(N)=O)NC(=O)[C@H](CO)NC(=O)[C@H](C)NC(=O)CC[C@H](NC(=O)CCCCCCCCCCCCCCCCC(=O)O)C(=O)O)[C@@H](C)O)C(C)C)C(=O)N[C@@H](CO)C(=O)N[C@@H](CC(=O)O)C(=O)N[C@@H](CCC(=O)O)C(=O)N[C@@H](CC(C)C)C(=O)N[C@@H](Cc1c[nH]cn1)C(=O)N[C@@H](CCCNC(=N)N)C(=O)N[C@@H](CC(C)C)C(=O)N[C@@H](CCC(N)=O)C(=O)N[C@@H](CC(=O)O)C(=O)N[C@@H](Cc1ccc(O)cc1)C(=O)N1CCC[C@H]1C(=O)N[C@@H](CCCNC(=N)N)C(=O)N[C@H](C(=O)N[C@@H](CC(=O)O)C(=O)N[C@H](C(=O)NCC(=O)N[C@@H](CO)C(=O)NCC(=O)N[C@@H](CO)C(=O)N1CCC[C@H]1C(N)=O)C(C)C)[C@@H](C)O` [M39] ({C18 diacid-γGlu}-ASQLSTAVLGRLSDELHRLQDYPRTDVGSGSP-NH2), in data set [1] (1 mg/mL, phosphate), the “Changes … 0d” value is “Clear” and the “Changes … 7d” value was “Clear”. Further, the “Concentration change (7d-0d)/%” value in data set [1] is given as “No change (a decrease of less than 1% from the initial value to the detected content is denoted as "no change")”. Besides, in data set [1] (setting [3]), the “Purity Change% (7d-0d)” value is recorded as “No change (a decrease of less than 1% from the initial value to the detected content is denoted as "no change")”. Also, the “Purity Change% (26d-0d)” value in data set [1] (purity from reversed phase chromatography-214 nm, Day 26 vs Day 0) is reported as -3.3%. For the same compound, the EC50 (in general, the concentration at which the effect is half-maximal) on human amylin receptors is 0.016 nM.

Regarding `CC(C)C[C@H](NC(=O)[C@H](CCCNC(=N)N)NC(=O)CNC(=O)[C@H](CC(C)C)NC(=O)[C@@H](NC(=O)[C@H](C)NC(=O)[C@@H](NC(=O)[C@H](CO)NC(=O)[C@H](CC(C)C)NC(=O)[C@H](CCC(N)=O)NC(=O)[C@H](CO)NC(=O)[C@H](C)NC(=O)CC[C@H](NC(=O)CCCCCCCCCCCCCCCCCCC(=O)O)C(=O)O)[C@@H](C)O)C(C)C)C(=O)N[C@@H](CO)C(=O)N[C@@H](CCC(N)=O)C(=O)N[C@@H](CCC(=O)O)C(=O)N[C@@H](CC(C)C)C(=O)N[C@@H](Cc1c[nH]cn1)C(=O)N[C@@H](CCCNC(=N)N)C(=O)N[C@@H](CC(C)C)C(=O)N[C@@H](CCC(N)=O)C(=O)N[C@@H](CC(=O)O)C(=O)N[C@@H](CC(C)C)C(=O)N1CCC[C@H]1C(=O)N[C@@H](CCCNC(=N)N)C(=O)N[C@H](C(=O)N[C@@H](CC(=O)O)C(=O)N[C@H](C(=O)NCC(=O)N[C@@H](CO)C(=O)NCC(=O)N[C@@H](CO)C(=O)N1CCC[C@H]1C(N)=O)C(C)C)[C@@H](C)O` [M18] ({C20 diacid-γGlu}-ASQLSTAVLGRLSQELHRLQDLPRTDVGSGSP-NH2), in data set [2], the “Effect on reducing food intake” value is on record as “particularly effective” and the “Effect on reducing body weight” value is reported as “particularly effective”.

Regarding `CC(C)C[C@H](NC(=O)[C@H](CCCNC(=N)N)NC(=O)CNC(=O)[C@H](CC(C)C)NC(=O)[C@@H](NC(=O)[C@H](C)NC(=O)[C@@H](NC(=O)[C@H](CO)NC(=O)[C@H](CC(C)C)NC(=O)[C@H](CCC(N)=O)NC(=O)[C@H](CO)NC(=O)[C@H](C)NC(=O)CC[C@H](NC(=O)CCCCCCCCCCCCCCCCCCC(=O)O)C(=O)O)[C@@H](C)O)C(C)C)C(=O)N[C@@H](CO)C(=O)N[C@@H](CCC(N)=O)C(=O)N[C@@H](CCC(=O)O)C(=O)N[C@@H](CC(C)C)C(=O)N[C@@H](Cc1c[nH]cn1)C(=O)N[C@@H](CCCNC(=N)N)C(=O)N[C@@H](CC(C)C)C(=O)N[C@@H](CCC(N)=O)C(=O)N[C@@H](CC(=O)O)C(=O)N[C@@H](Cc1ccc(O)cc1)C(=O)N1CCC[C@H]1C(=O)N[C@@H](CCCNC(=N)N)C(=O)N[C@H](C(=O)N[C@@H](CC(=O)O)C(=O)N[C@H](C(=O)NCC(=O)N[C@@H](C)C(=O)N[C@@H](CCC(=O)O)C(=O)N[C@@H](CO)C(=O)N1CCC[C@H]1C(N)=O)C(C)C)[C@@H](C)O` [M20] ({C20 diacid-γGlu}-ASQLSTAVLGRLSQELHRLQDYPRTDVGAESP-NH2), on human amylin receptors, a half-maximal effect (EC50) was put at 0.017 nM. Also, in data set [2], the “Effect on reducing food intake” value is “prominent effect” and the “Effect on reducing body weight” value was “prominent effect”.
